Reference: patent US4174391A, “Spiramycin esters” (May & Baker Limited, priority 1976, dated 1979)
In brackets after ≈: the same amount, converted by molar mass. Counter-ions that a name gives are not always drawn.

How the values were obtained:
[1] = system: Staphylococcus aureus (Oxford); experiment: In vitro minimum inhibitory concentration, S. aureus (Oxford) (Test 3); assay type: cell-based; conditions: tryptone soya broth, approximately 10^5 organisms per tube, 37° C.; for MIC: Staphylococcus aureus
Experimental: (§1) For each test compound, a range of concentrations in tryptone soya broth was prepared. Each test-tube containing a different concentration of the test compound within the range was inoculated with the test organism selected from Staphylococcus aureus (Oxford) or Escherichia coli B (Ennis) (approximately 10^5 organisms per tube) and after incubation at 37° C., the lowest concentration of test compound within the range required to prevent the growth of the test organism was recorded as the minimum inhibitory concentration for that compound and that organism.

[2] = system: Escherichia coli B (Ennis); experiment: In vitro minimum inhibitory concentration, E. coli B (Ennis) (Test 3); assay type: cell-based; conditions: tryptone soya broth, approximately 10^5 organisms per tube, 37° C.; for MIC: Escherichia coli
Experimental: as §1

[3] = system: Staphylococcus aureus Smith; experiment: Mouse treated orally, Staphylococcus aureus Smith infection (Test 1); conditions: 168 h, oral, dosed 1, 4, 24, 30 and 48 hours after infection, observed seven days, test compound, read-out: In vivo CD50 (oral)
Experimental: Mice were injected intra-peritoneally with Staphylococcus aureus Smith suspended in mucin (0.5 ml). This infection represented approximately 100 times the minimum dose calculated to kill 100% of mice. The mice were each treated orally with 16, 31, 62.5, 125 or 250 mg/kg animal body weight doses of a compound of general formula I. Each mouse was dosed 1, 4, 24, 30 and 48 hours after infection, with the selected dose.
(§2) The term "CD50" means the dose calculated to cure 50% of the mice treated.

Mouse oral toxicity = conditions: in vivo
Experimental: Mice were each treated orally with one of the compounds of general formula I, and they were observed during the next 3 days.
The LD50 figures obtained (doses lethal to 50% of mice treated) are shown in Table II, expressed in mg/kg animal body weight. None of the mice died during the experiment even at doses of 1000 mg/kg animal body weight.

[4] = system: Staphylococcus aureus Smith; experiment: Mouse treated subcutaneously, Staphylococcus aureus Smith infection (Test 2); assay type: in vivo; conditions: sc, 168 h, read-out: CD50 (subcutaneous)
Experimental: as §2
Mice were infected intra-peritoneally with Staphylococcus aureus Smith [approximately 100 times the minimum dose lethal to 100% of mice infected] suspended in mucin (0.5 ml).
The results obtained from a compound of general formula I were compared with the results obtained from spiramycin I used as a standard compound.

Row | Molecule | MIC [1] [µg/mL] | MIC [2] [µg/mL] | ED50 [3] [mg/kg] | In vitro minimum inhibitory concentration, S. aureus (Oxford) [1] [µg/mL] | In vitro minimum inhibitory concentration, Escherichia coli B (Ennis) [2] [µg/mL] | LD50 at 72 h (Mouse oral toxicity) [mg/kg] | ED50 [4] [mg/kg] | ED50 ([4]; mouse, subcutaneous, 1, 4, 24, 30 and 48 hours after infection, observed seven days) [mg/kg]
1 | COC(=O)CCCC(=O)OC1C(OC2C(CC=O)CC(C)C(OC3CCC(N(C)C)C(C)O3)/C=C/C=C/CC(C)OC(=O)CC(O)C2OC)OC(C)C(OC2CC(C)(O)C(O)C(C)O2)C1N(C)C (stereo not drawn) [E, 2'-methyl glutarate of spiramycin I] | 2.5 (≈ 2.57 µM) | 125 (≈ 129 µM) | 125 | – | – | – | – | –
2 | COC(=O)/C=C/C(=O)OC1C(OC2C(CC=O)CC(C)C(OC3CCC(N(C)C)C(C)O3)/C=C/C=C/CC(C)OC(=O)CC(O)C2OC)OC(C)C(OC2CC(C)(O)C(O)C(C)O2)C1N(C)C (stereo not drawn) [F, 2'-methyl fumarate of spiramycin I] | 2.5 | 250 | 125 | – | – | – | – | –
3 | Spiramycin [reference compound] | – | – | – | 0.62 to 2.5 | 62 to 250 | – | – | –
4 | COC1C(O)CC(=O)OC(C)C/C=C/C=C/C(OC2CCC(N(C)C)C(C)O2)C(C)CC(CC=O)C1OC1OC(C)C(OC2CC(C)(O)C(O)C(C)O2)C(N(C)C)C1OC(=O)CCC(=O)OC1CCCCC1 (stereo not drawn) [H, 2'-cyclohexyl succinate of spiramycin I] | 2.5 | 250 | 67 | – | – | – | – | –
5 | CCOC(=O)CCCC(=O)OC1C(OC2C(CC=O)CC(C)C(OC3CCC(N(C)C)C(C)O3)/C=C/C=C/CC(C)OC(=O)CC(O)C2OC)OC(C)C(OC2CC(C)(O)C(O)C(C)O2)C1N(C)C (stereo not drawn) [B, 2'-ethyl glutarate of spiramycin I] | 1.25 (≈ 1.27 µM) | 62 (≈ 62.9 µM) | 135 | – | – | > 1000 | – | –
6 | COC1C(O)CC(=O)OC(C)C/C=C/C=C/C(OC2CCC(N(C)C)C(C)O2)C(C)CC(CC=O)C1OC1OC(C)C(OC2CC(C)(O)C(O)C(C)O2)C(N(C)C)C1OC(=O)CCC(=O)OCCc1ccccc1 (stereo not drawn) [M, 2'-(2-phenylethyl) succinate of spiramycin I] | 2.5 | 250 | 64 | – | – | – | – | –
7 | COC(=O)CC(C)C(=O)OC1C(OC2C(CC=O)CC(C)C(OC3CCC(N(C)C)C(C)O3)/C=C/C=C/CC(C)OC(=O)CC(O)C2OC)OC(C)C(OC2CC(C)(O)C(O)C(C)O2)C1N(C)C (stereo not drawn) [Compound L, 2'-methyl (RS)-(3-methyl)succinate of spiramycin I] | 2.5 (≈ 2.57 µM) | 250 (≈ 257 µM) | 58 | – | – | – | – | –
8 | CCOC(=O)CC(=O)OC1C(OC2C(CC=O)CC(C)C(OC3CCC(N(C)C)C(C)O3)/C=C/C=C/CC(C)OC(=O)CC(O)C2OC)OC(C)C(OC2CC(C)(O)C(O)C(C)O2)C1N(C)C (stereo not drawn) [J, 2'-ethyl malonate of spiramycin I] | 5 (≈ 5.22 µM) | 250 (≈ 261 µM) | 120 | – | – | – | – | –
9 | COC1C(O)CC(=O)OC(C)C/C=C/C=C/C(OC2CCC(N(C)C)C(C)O2)C(C)CC(CC=O)C1OC1OC(C)C(OC2CC(C)(O)C(O)C(C)O2)C(N(C)C)C1O (stereo not drawn) [Spiramycin I, spiramycin I, reference compound] | – | – | – | – | – | – | 5.8 | –
10 | COC1C(O)CC(=O)OC(C)C/C=C/C=C/C(OC2CCC(N(C)C)C(C)O2)C(C)CC(CC=O)C1OC1OC(C)C(OC2CC(C)(O)C(O)C(C)O2)C(N(C)C)C1OC(=O)CCC(=O)Oc1ccccc1 (stereo not drawn) [K, 2'-phenyl succinate of spiramycin I] | 2.5 | 250 | 76 | – | – | – | – | –
11 | COC(=O)CCC(=O)OC1C(OC2C(CC=O)CC(C)C(OC3CCC(N(C)C)C(C)O3)/C=C/C=C/CC(C)OC(=O)CC(O)C2OC)OC(C)C(OC2CC(C)(O)C(O)C(C)O2)C1N(C)C (stereo not drawn) [C, 2'-methyl succinate of spiramycin I] | 2.5 | 250 | 62 | – | – | – | – | –
12 | CCOC(=O)CCC(=O)OC1C(OC2C(CC=O)CC(C)C(OC3CCC(N(C)C)C(C)O3)/C=C/C=C/CC(C)OC(=O)CC(O)C2OC)OC(C)C(OC2CC(C)(O)C(O)C(C)O2)C1N(C)C (stereo not drawn) [A, 2'-ethyl succinate of spiramycin I] | 1.25 | 62 | 88 | – | – | > 1000 | – | 17.5
13 | COC1C(O)CC(=O)OC(C)C/C=C/C=C/C(OC2CCC(N(C)C)C(C)O2)C(C)CC(CC=O)C1OC1OC(C)C(OC2CC(C)(O)C(O)C(C)O2)C(N(C)C)C1OC(=O)CCC(=O)OC(C)C (stereo not drawn) [O, 2'-isopropyl succinate of spiramycin I] | 1.25 | 125 | 96 | – | – | – | – | –
14 | COC1C(O)CC(=O)OC(C)C/C=C/C=C/C(OC2CCC(N(C)C)C(C)O2)C(C)CC(CC=O)C1OC1OC(C)C(OC2CC(C)(O)C(O)C(C)O2)C(N(C)C)C1OC(=O)CCC(=O)SC (stereo not drawn) [G, 2'-S-methyl thiosuccinate of spiramycin I] | 2.5 (≈ 2.57 µM) | 500 (≈ 514 µM) | 114 | – | – | – | – | –
15 | CCCOC(=O)CCC(=O)OC1C(OC2C(CC=O)CC(C)C(OC3CCC(N(C)C)C(C)O3)/C=C/C=C/CC(C)OC(=O)CC(O)C2OC)OC(C)C(OC2CC(C)(O)C(O)C(C)O2)C1N(C)C (stereo not drawn) [D, 2'-propyl succinate of spiramycin I] | 2.5 | 250 | 90 | – | – | – | – | –
16 | COC1C(O)CC(=O)OC(C)C/C=C/C=C/C(OC2CCC(N(C)C)C(C)O2)C(C)CC(CC=O)C1OC1OC(C)C(OC2CC(C)(O)C(O)C(C)O2)C(N(C)C)C1OC(=O)CCC(=O)OC(C)(C)C (stereo not drawn) [N, 2'-tertiary-butyl succinate of spiramycin I] | 2.5 | 125 | 130 | – | – | – | – | –
